Laboratory results published in the supplement of paper PMC10307832.

Experiments:
Experiment in all cases: relative viability (nuclei count vs DMSO), 5 days (fraction); higher = more cells survive
[1] = compound: O=c1cc(-c2cccc3c2Sc2ccccc2S3)oc(N2CCOCC2)c1
Procedure, shortened: (§1)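 On vehicle-anchored 1536-well plates, lung cancer cell lines held overnight at 37 °C were pinned with five library-drug doses (not always all listed) spaced by √10. With no medium change over 5 days, they were then fixed, permeabilised and Hoechst-stained in one step and imaged at 4×. MetaXpress counted nuclei, and viability is the median across plates of treated-well over vehicle-well nuclei. Acceptance needed control CV below 25% and at least one doubling.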

[2] = compound: CCN(CC)CCCCNc1ncc2cc(-c3cc(OC)cc(OC)c3)c(NC(=O)NC(C)(C)C)nc2n1
Procedure, shortened: as §1

[3] = compound: C1COCCN1C2=CC(=O)C3=C(O2)C(=CC=C3)C4=CC=CC5=C4SC6=CC=CC=C56
Procedure, shortened: as §1

PRIMA-1MET = compound: COCC1(CO)C(=O)C2CCN1CC2 [PRIMA-1MET]
Procedure, shortened: as §1

Zibotentan = compound: COc1nc(C)cnc1NS(=O)(=O)c1cccnc1-c1ccc(-c2nnco2)cc1 [Zibotentan]
Procedure, shortened: as §1

| Cell Line | relative viability ([1]; 0.08 µM) | relative viability ([1]; 0.253 µM) | relative viability ([1]; 0.8 µM) | relative viability ([1]; 2.53 µM) | relative viability ([1]; 8 µM) | relative viability ([2]; 0.01 µM) | relative viability ([2]; 0.03162 µM) | relative viability ([2]; 0.1 µM) | relative viability ([2]; 0.3162 µM) | relative viability ([2]; 1 µM) | relative viability ([3]; 0.01 µM) | relative viability ([3]; 0.03162 µM) | relative viability ([3]; 0.3162 µM) | relative viability ([3]; 1 µM) | relative viability (PRIMA-1MET; 0.2 µM) | relative viability (PRIMA-1MET; 2 µM) | relative viability (PRIMA-1MET; 6.325 µM) | relative viability (PRIMA-1MET; 20 µM) | relative viability (Zibotentan; 0.08 µM) | relative viability (Zibotentan; 0.253 µM) | relative viability (Zibotentan; 0.8 µM) | relative viability (Zibotentan; 2.53 µM) | relative viability ([3]; 0.1 µM) | relative viability (PRIMA-1MET; 0.6325 µM) |
| --- | --- | --- | --- | --- | --- | --- | --- | --- | --- | --- | --- | --- | --- | --- | --- | --- | --- | --- | --- | --- | --- | --- | --- | --- |
| NCI-H650 | 0.979 | 0.857 | 1.01 | 0.76 | 1.1 | 0.836 | 0.926 | 1.19 | 0.983 | 0.888 | 0.909 | 1.07 | 1.08 | 0.884 | 1.24 | 0.913 | 1.03 | 0.128 | 1.02 | 0.792 | 0.988 | 0.912 |  |  |
| HARA | 0.903 | 1.12 | 0.94 | 0.767 | 0.843 | 1.14 | 1.06 | 1.04 | 0.993 | 0.636 | 0.859 | 0.893 | 0.981 | 0.865 | 1.04 |  | 0.977 | 0.997 | 1.04 | 0.86 | 0.951 | 1 | 0.958 | 0.796 |
| NCI-H2009 | 0.987 | 1.03 | 0.962 | 0.93 | 0.869 | 1.05 | 1.06 | 1.04 | 1.07 | 0.979 | 1.02 | 0.995 | 0.982 | 0.927 | 0.944 | 1.03 | 1.04 | 0.0681 | 1 | 0.968 | 1.07 | 1.06 | 1.01 | 0.976 |
| NCI-H441 | 1.02 | 1.27 | 1.23 | 0.971 | 1.1 | 1.05 | 1.08 | 1.25 | 1.12 | 0.995 | 1.1 | 0.977 | 0.938 | 1.05 | 1 | 0.812 | 0.99 | 0.713 | 1.11 | 0.828 | 1.3 | 0.985 | 1.08 | 0.87 |
| PC-14 | 1.02 | 1.18 | 0.981 | 0.87 | 1.06 | 1.09 | 1.06 | 1.18 | 1.25 | 0.966 | 0.936 | 0.993 | 1.09 | 0.971 | 1.06 | 0.944 | 1.05 | 0.688 | 1.04 | 0.873 | 1.05 | 1.02 | 0.981 | 0.956 |
| A-427 | 0.958 | 1.03 | 1.09 | 0.814 | 1.06 | 1.01 | 0.896 | 1.07 | 1.12 | 0.844 | 0.967 | 1.05 | 0.979 | 1 | 1.01 | 0.831 | 1.02 | 0.855 | 1.08 | 0.972 | 0.942 | 1.01 | 0.923 | 0.836 |
| NCI-H1651 | 0.974 | 1.13 | 0.983 | 0.941 | 1.07 | 1.04 | 0.988 | 1.05 | 1.06 | 0.979 | 0.983 | 0.976 | 0.998 | 0.944 | 1.08 | 0.907 | 1.04 | 0.946 | 1.03 | 0.912 | 0.937 | 1.03 | 0.975 | 0.901 |
